From ChEMBL document CHEMBL4387750, “Backbone modifications in peptidic inhibitors of flaviviral proteases” (Bioorg Med Chem Lett, 2019)
Where a SMILES comes first, the peptide text is derived from it. [ ]: non-standard residue; d: D form. The star is where a group is joined. dPhg = N[C@@H](C(=O)O)c1ccccc1; Phg = N[C@H](C(=O)O)c1ccccc1; Bz = O=C(c1ccccc1)*

Columns and labels:
[1] = Metabolic stability assessed as alpha-chymotrypsin (unknown origin)-mediated drug degradation by measuring half life in pH 7.4 phosphate buffer incubated up to 60 mins at 37 degC by HPLC and UV analysis; type: ADME; conditions: human; for Stability: buffer, pH 7.4, 1 h
[2] = biological target: Genome polyprotein (West Nile virus) (UniProt P06935); experiment: Inhibition of West Nile virus NS2B-NS3 protease preincubated with protein for 15 mins followed by Abz-Gly-Leu-Lys-Arg-Gly-Gly-3-(NO2)-Tyr substrate addition and measured by continuous fluorometric analysis relative to control; design: concentration or dose not given beside the values
Sequence of Genome polyprotein (West Nile virus) (P06935 whole entry): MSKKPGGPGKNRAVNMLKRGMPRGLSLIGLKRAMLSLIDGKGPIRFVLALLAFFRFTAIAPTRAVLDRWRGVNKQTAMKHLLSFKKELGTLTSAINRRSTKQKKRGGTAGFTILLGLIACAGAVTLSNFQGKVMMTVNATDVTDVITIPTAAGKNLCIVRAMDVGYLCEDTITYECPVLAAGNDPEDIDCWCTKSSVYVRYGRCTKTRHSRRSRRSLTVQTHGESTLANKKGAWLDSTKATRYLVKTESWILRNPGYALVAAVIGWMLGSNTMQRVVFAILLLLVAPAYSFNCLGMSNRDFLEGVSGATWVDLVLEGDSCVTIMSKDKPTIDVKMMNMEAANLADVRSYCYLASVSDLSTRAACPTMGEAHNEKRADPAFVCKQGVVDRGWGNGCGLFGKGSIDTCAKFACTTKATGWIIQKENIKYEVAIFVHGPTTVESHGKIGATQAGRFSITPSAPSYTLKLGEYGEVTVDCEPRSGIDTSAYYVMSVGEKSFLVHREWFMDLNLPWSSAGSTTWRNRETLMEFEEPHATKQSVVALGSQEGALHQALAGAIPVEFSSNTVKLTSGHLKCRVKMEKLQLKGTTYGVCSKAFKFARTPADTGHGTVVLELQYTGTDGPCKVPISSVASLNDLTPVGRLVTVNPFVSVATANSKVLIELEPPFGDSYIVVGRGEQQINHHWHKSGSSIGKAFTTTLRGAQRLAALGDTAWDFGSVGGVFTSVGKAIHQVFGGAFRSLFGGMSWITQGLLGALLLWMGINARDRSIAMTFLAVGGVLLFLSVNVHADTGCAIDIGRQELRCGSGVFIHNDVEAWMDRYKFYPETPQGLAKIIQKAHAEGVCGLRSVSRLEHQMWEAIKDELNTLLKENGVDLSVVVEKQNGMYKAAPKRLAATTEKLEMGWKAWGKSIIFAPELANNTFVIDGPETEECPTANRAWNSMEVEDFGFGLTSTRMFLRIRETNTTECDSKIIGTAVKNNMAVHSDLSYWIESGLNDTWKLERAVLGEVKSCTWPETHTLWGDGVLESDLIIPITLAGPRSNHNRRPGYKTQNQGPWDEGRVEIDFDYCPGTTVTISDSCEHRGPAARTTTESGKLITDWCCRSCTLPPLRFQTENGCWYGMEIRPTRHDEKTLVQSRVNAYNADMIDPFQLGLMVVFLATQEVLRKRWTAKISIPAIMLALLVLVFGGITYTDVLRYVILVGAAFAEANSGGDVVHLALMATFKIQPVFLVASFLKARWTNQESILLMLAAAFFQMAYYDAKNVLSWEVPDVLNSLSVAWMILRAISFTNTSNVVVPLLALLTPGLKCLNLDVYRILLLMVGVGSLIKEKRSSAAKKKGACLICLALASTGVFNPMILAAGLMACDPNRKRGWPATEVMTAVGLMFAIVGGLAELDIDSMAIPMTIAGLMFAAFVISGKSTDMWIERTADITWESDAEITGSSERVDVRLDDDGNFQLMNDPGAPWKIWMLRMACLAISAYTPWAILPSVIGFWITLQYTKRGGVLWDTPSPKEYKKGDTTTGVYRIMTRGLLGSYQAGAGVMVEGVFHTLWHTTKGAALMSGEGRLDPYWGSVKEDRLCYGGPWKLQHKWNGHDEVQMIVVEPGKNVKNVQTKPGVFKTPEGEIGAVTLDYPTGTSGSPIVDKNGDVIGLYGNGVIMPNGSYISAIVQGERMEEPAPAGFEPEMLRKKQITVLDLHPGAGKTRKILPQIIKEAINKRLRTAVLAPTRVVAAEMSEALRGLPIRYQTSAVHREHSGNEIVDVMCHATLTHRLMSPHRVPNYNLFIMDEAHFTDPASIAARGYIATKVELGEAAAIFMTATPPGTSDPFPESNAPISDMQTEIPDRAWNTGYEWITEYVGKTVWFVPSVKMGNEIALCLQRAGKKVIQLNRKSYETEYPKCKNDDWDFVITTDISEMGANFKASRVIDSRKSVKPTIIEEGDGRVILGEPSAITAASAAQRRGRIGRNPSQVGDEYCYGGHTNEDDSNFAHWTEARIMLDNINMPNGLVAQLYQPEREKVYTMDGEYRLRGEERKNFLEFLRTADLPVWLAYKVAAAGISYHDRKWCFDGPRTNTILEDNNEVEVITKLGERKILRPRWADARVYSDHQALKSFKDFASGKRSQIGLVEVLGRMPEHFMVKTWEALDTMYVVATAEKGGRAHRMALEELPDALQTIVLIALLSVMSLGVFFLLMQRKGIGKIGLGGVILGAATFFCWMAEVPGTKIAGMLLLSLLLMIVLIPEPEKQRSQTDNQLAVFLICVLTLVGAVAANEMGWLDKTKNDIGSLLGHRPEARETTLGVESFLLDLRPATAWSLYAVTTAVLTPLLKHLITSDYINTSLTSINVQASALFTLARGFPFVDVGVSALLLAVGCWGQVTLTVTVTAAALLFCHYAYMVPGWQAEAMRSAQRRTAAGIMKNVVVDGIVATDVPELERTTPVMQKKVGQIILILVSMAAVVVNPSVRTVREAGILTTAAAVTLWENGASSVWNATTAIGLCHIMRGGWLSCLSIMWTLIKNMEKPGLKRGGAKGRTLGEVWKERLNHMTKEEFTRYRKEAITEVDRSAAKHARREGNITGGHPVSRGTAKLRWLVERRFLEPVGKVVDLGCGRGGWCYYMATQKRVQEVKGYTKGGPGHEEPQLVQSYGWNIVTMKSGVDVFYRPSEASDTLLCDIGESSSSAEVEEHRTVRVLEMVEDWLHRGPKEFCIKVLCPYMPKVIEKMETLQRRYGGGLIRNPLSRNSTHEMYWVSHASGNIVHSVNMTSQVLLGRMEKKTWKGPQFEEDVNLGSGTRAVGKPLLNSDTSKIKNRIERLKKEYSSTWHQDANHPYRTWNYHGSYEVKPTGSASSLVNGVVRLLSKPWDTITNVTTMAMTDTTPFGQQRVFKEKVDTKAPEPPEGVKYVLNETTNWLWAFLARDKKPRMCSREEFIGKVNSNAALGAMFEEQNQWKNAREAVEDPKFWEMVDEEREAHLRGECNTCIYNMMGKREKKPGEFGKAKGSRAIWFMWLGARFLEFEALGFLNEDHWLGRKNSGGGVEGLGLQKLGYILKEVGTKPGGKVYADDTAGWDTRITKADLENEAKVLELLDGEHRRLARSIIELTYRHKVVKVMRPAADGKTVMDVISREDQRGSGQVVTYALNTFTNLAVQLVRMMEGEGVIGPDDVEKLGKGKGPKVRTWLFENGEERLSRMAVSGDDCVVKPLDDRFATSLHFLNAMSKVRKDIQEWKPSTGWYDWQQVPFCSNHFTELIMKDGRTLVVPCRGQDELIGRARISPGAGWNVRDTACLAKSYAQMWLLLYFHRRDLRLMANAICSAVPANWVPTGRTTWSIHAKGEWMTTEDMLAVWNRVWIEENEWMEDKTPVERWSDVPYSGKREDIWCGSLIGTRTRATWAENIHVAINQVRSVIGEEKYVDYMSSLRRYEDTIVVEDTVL

Trypsin [3] = biological target: T1, Trypsin (Homo sapiens, UniProt P07477+P07478+P35030); experiment: Inhibition of trypsin (unknown origin) at 50 uM preincubated with protein for 15 mins followed by boc-Val-Pro-Arg-AMC substrate addition and measured by continuous fluorometric analysis relative to control; type: protein assay
[4] = Metabolic stability in Sprague-Dawley rat liver microsomes assessed as compound degradation by measuring half life incubated for 120 mins by HPLC and UV analysis; type: ADME, Microsome; conditions: for Stability: microsomes, 2 h
[5] = biological target: Genome polyprotein (dengue virus type 2) (UniProt P29990); experiment: Inhibition of Dengue virus serotype 2 NS2B-NS3 protease at 50 uM preincubated with protein for 15 mins followed by Abz-Nle-Lys-Arg-Arg-Ser-3-(NO2)Tyr substrate addition and measured by continuous fluorometric analysis relative to control
Genome polyprotein [6] = biological target: Genome polyprotein (dengue virus type 2, UniProt P29990); experiment: Inhibition of Dengue virus serotype 2 NS2B-NS3 protease preincubated with protein for 15 mins followed by Abz-Nle-Lys-Arg-Arg-Ser-3-(NO2)Tyr substrate addition and measured by continuous fluorometric analysis
[7] = biological target: Prothrombin (Homo sapiens) (UniProt P00734); experiment: Inhibition of human thrombin at 25 uM preincubated with protein for 15 mins followed by boc-Val-Pro-Arg-AMC substrate addition and measured after 10 mins by continuous fluorometric analysis relative to control
Trypsin [8] = biological target: T1, Trypsin; experiment: Metabolic stability assessed as trypsin (unknown origin)-mediated drug degradation by measuring half life in pH 7.5 Tris buffer incubated up to 60 mins at 37 degC by HPLC and UV analysis; type: ADME, protein assay; conditions: pH 7.5, 1 h
Genome polyprotein [9] = biological target: Genome polyprotein (West Nile virus, UniProt P06935); experiment: Inhibition of West Nile virus NS2B-NS3 protease preincubated with protein for 15 mins followed by Abz-Gly-Leu-Lys-Arg-Gly-Gly-3-(NO2)-Tyr substrate addition and measured by continuous fluorometric analysis
Sequence of Genome polyprotein (West Nile virus, UniProt P06935) (P06935 1371-1501 limits assumed): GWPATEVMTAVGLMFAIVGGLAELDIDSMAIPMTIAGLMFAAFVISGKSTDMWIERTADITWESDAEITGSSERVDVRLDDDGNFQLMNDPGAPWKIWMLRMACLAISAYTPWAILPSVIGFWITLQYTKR
Sequence of Genome polyprotein (West Nile virus, UniProt P06935) (P06935 1502-2120 limits assumed): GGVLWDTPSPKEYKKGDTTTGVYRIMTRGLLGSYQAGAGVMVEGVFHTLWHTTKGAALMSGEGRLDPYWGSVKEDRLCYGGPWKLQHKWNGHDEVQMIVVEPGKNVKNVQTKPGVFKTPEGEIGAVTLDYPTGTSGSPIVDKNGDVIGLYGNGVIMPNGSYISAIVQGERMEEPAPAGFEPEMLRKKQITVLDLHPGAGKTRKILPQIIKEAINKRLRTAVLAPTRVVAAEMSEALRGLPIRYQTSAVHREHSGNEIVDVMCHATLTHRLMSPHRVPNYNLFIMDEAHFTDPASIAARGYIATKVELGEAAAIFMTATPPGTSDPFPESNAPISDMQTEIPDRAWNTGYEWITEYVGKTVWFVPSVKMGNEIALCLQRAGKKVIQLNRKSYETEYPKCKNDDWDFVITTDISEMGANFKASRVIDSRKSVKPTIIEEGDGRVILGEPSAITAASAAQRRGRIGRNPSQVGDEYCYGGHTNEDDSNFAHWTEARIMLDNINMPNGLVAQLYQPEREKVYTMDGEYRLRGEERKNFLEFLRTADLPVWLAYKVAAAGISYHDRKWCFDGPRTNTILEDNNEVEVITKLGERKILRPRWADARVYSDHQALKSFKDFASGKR

[10] = Metabolic stability in Sprague-Dawley rat liver microsomes assessed as compound remaining after 120 mins by HPLC and UV analysis; type: ADME, Microsome; conditions: read-out: Stability

Compound | Stability [1] | inhibition [2] | inhibition (Trypsin [3]) | Stability [4] | inhibition [5] | IC50 (Genome polyprotein [6]) | inhibition [7] | Stability (Trypsin [8]) | IC50 (Genome polyprotein [9]) | half-life ([1]; alpha-chymotrypsin in phosphate buffer, pH 7.4) | remaining at 2 h [10] | half-life ([4]; Sprague-Dawley, liver microsomes)
CN(C(=O)c1ccccc1)[C@@H](CCCNC(=N)N)C(=O)N[C@@H](CCCCN)C(=O)N[C@@H](C(N)=O)c1ccccc1 | Stable | 48.4% | < 5% | Stable | 93.6% | 3.6 µM | < 5% | Stable |  |  |  | 
N=C(N)NCCC[C@H](NC(=O)c1ccccc1)C(=O)N[C@@H](CCCCN)CC(=O)N(CC(N)=O)c1ccccc1 |  | 17.7% | < 5% |  | 22.7% |  | < 5% |  |  |  |  | 
CC(NC(=O)[C@H](CCCCN)NC(=O)[C@H](CCCNC(=N)N)NC(=O)c1ccccc1)(C(N)=O)c1ccccc1 (stereo partly drawn) |  | 59.8% | < 5% |  | 97.8% | 1.3 µM | 9.1% |  | 24.3 µM |  |  | 
N=C(N)NCCCN(CC(=O)N[C@@H](CCCCN)C(=O)N[C@@H](C(N)=O)c1ccccc1)C(=O)c1ccccc1 |  | 12.4% | < 5% |  | 32.7% |  | < 5% |  |  |  |  | 
C[C@](NC(=O)[C@H](CCCCN)NC(=O)[C@H](CCCNC(=N)N)NC(=O)c1ccccc1)(C(N)=O)c1ccccc1 | Stable | 82.5% | 11.8% | Stable | 99.1% | 0.6 µM | 6.5% | Stable | 14.3 µM |  |  | 
N=C(N)NCCC[C@H](NC(=O)c1ccccc1)C(=O)N[C@@H](CCCCN)C(=O)N[C@@H](C(N)=O)c1ccccc1 (Bz-Arg-Lys-[dPhg]-NH2) |  | 99% | 12.5% | Stable | 99.3% | 3.8 µM | < 5% | Stable | 3.8 µM | 11 min |  | 
N=C(N)NCCC[C@@H](NC(=O)[C@@H](N)Cc1ccc(O)cc1)C(=O)N[C@@H](Cc1ccccc1)C(=O)N[C@@H](Cc1ccccc1)C(N)=O (H-Y[dR]FF-NH2) | Unstable |  |  |  |  |  |  | Stable |  |  | 85% | 
CCC(NC(=O)[C@H](CCCCN)NC(=O)[C@H](CCCNC(=N)N)NC(=O)c1ccccc1)(C(N)=O)c1ccccc1 (stereo partly drawn) |  | 12.1% | 8.7% |  | 35.2% |  | < 5% |  |  |  |  | 
N=C(N)NCCC[C@H](NC(=O)c1ccccc1)C(=O)N[C@@H](CCCCN)C(=O)N[C@H](C(N)=O)c1ccccc1 (Bz-Arg-Lys-[Phg]-NH2) |  |  | < 5% |  | 95% | 3.3 µM | < 5% |  |  |  |  | 
C[C@]12CC[C@H]3[C@@H](CCC4=CC(=O)CC[C@@]43C)[C@@H]1CC[C@@H]2O [TESTOSTERONE] |  |  |  |  |  |  |  |  |  |  |  | 9 to 35 min
N=C(N)NCCC[C@H](NC(=O)C(=O)c1ccccc1)C(=O)N[C@@H](CCCCN)C(=O)N[C@@H](C(N)=O)c1ccccc1 |  | 43.2% | 33.5% |  | 94% | 4.1 µM | < 5% |  |  |  |  | 
N=C(N)NCCC[C@H](NC(=O)c1ccccc1)C(=O)N[C@@H](CCCCN)C(=O)NC(C(N)=O)(c1ccccc1)c1ccccc1 |  | 33.3% | 45.5% |  | 20.6% |  | < 5% |  |  |  |  | 
CN(C(=O)[C@H](CCCCN)NC(=O)[C@H](CCCNC(=N)N)NC(=O)c1ccccc1)[C@@H](C(N)=O)c1ccccc1 |  | 36.7% | < 5% |  | 33% |  | < 5% |  |  |  |  | 
N=C(N)NCCC[C@H](N[C@@H](c1ccccc1)C(F)(F)F)C(=O)N[C@@H](CCCCN)C(=O)N[C@@H](C(N)=O)c1ccccc1 |  | 6% | < 5% |  | 32.1% |  | < 5% |  |  |  |  | 
N=C(N)NCCC[C@H](NC(=O)c1ccccc1)C(=O)N[C@@H](CCCCN)C(=O)N[C@@H](C(N)=O)c1ccc(OCc2ccccc2)cc1 |  | 101% | 18.4% | Stable | 100% | 0.4 µM | 7.8% | Stable | 0.8 µM |  |  | 
N=C(N)NCCC[C@H](NC(=O)c1ccccc1)C(=O)N[C@@H](CCCCN)C(=O)N[C@@H](CC(N)=O)c1ccccc1 |  | 12.6% | 7.5% |  | 17.6% |  | < 5% |  |  |  |  | 
C[C@@](NC(=O)[C@H](CCCCN)NC(=O)[C@H](CCCNC(=N)N)NC(=O)c1ccccc1)(C(N)=O)c1ccccc1 |  | 47.4% | 20.7% |  | 81.7% | 9.5 µM | < 5% |  |  |  |  | 
CN(C(=O)[C@H](CCCNC(=N)N)NC(=O)c1ccccc1)[C@@H](CCCCN)C(=O)N[C@@H](C(N)=O)c1ccccc1 |  | < 5% | < 5% |  | 36.3% |  | < 5% |  |  |  |  | 
N=C(N)NCCC[C@H](NC(=O)c1ccccc1)C(=O)N(CCCCN)CC(=O)N[C@@H](C(N)=O)c1ccccc1 |  | 18.4% | 10.6% |  | < 5% |  | < 5% |  |  |  |  | 
N=C(N)NCCC[C@H](N[C@H](c1ccccc1)C(F)(F)F)C(=O)N[C@@H](CCCCN)C(=O)N[C@@H](C(N)=O)c1ccccc1 |  | 24.6% | < 5% |  | 43.7% |  | < 5% |  |  |  |  | 
CN(C(=O)c1ccccc1)[C@@H](CCCNC(=N)N)C(=O)N[C@@H](CCCCN)C(=O)N[C@@](C)(C(N)=O)c1ccccc1 |  | 50.8% | 10.9% |  | 93.9% | 3 µM | < 5% |  |  |  |  | 
N=C(N)NCCC[C@H](NC(=O)c1ccccc1)C(=O)N[C@@H](CCCCN)CC(=O)N[C@@H](C(N)=O)c1ccccc1 |  | 14.6% | < 5% |  | 31.8% |  | < 5% |  |  |  |  | 
CN(C(=O)c1ccccc1)[C@@H](CCCNC(=N)N)C(=O)N[C@@H](CCCCN)C(=O)N[C@@H](C(N)=O)c1ccc(OCc2ccccc2)cc1 |  | 92% | < 5% | Stable | 97.8% | 1.6 µM | 5.5% |  | 7.1 µM |  |  | 
N=C(N)NCCC[C@H](NC(=O)c1ccccc1)C(=O)N[C@@H](CCCCN)C(=O)N(CC(N)=O)c1ccccc1 |  | 19.8% | < 5% |  | 28.9% |  | < 5% |  |  |  |  | 
